Where two headings read alike, the source gives them in different places.
Conditions: 37° C., diffusion time 4 h, lidocaine 0.05% (hya 0.25% where present) in donor compartment

SMILES: CCN(CC)CC(=O)Nc1c(C)cccc1C [lidocaine]
- Flux (pH 3.1): 0.32 mg h^−1 cm^−2
- Flux (pH 6.0): 0.355 mg h^−1 cm^−2
- Flux (pH 6.5): 0.315 mg h^−1 cm^−2
- Flux (pH 6.9): 0.42 mg h^−1 cm^−2
- Flux (pH 7.7): 0.35 mg h^−1 cm^−2
- Flux (pH 9.0): 0.09 mg h^−1 cm^−2
